Assay: Absorption spectrum in methylene chloride at 50 ppm
Type: physicochemical
Conditions: for Absorption of light (absorption spectrum): methylene chloride, 50 ppm, FIGS. 1 to 4
Method: One way of measuring the λmax of an active energy ray polymerization initiator is to dissolve an active energy ray polymerization initiator in methylene chloride at 50 ppm followed by measuring the absorption spectrum of this solution by a spectrophotometer for ultraviolet, visible light, and near infrared, V-680, manufactured by JASCO Corporation.
The absorption spectrum was measured by a spectrophotometer V-680 for UV, visible light, and near IR, manufactured by JASCO Corporation.
The absorption spectra of the active energy ray polymerization initiators Ref-1, Ref-2, and Ref-4 were measured as described above.

Q: With `CCCCCCCCCCCCOc1ccc2sc3ccccc3c(=O)c2c1` [Ref-1, 2-dodecyloxy thioxanthone] as the compound, how does the “Support of LED light source of 365 nm, 385 nm, and 395 nm” value (judged from absorption spectrum) read?
A: support an LED light source of 365 nm, 385 nm, and 395 nm

Q: What about the “Absorption of light (absorption spectrum)” value of the same compound?
A: fully absorb light having a wavelength of 400 nm or less

Q: With `CC(C)(O)C(=O)c1ccccc1` [Ref-4, 2-Hydroxy-2-methyl-1-phenylpropane-1-one] as the compound, how does the “Absorption of light (absorption spectrum)” value read?
A: does not absorb light having a wavelength of 350 nm or greater at all

Source: US12497530B2, “Active energy ray polymerization initiator, active energy ray curing composition, active energy ray curing ink, aqueous active energy ray curing ink, container, image forming device, image forming method, and method of manufacturing active energy ray polymerization initiator” (Ricoh Company, Ltd., priority 2021, dated 2025)
